In the NIST ThermoML archive (doi:10.1021/je5010214):
Numbers after ± are expanded uncertainties.

Details: Liquid, Vibrating tube method

CCCCCCC [heptane]
Details	mass density [kg/m3]
323.15 K, 34081 kPa	690.434 ± 0.95
323.15 K, 35113 kPa	691.624 ± 0.95
323.15 K, 37953 kPa	693.659 ± 0.97
323.15 K, 42011 kPa	696.516 ± 0.99
323.15 K, 48025 kPa	700.814 ± 1
323.15 K, 49934 kPa	702.105 ± 1
323.15 K, 52114 kPa	703.681 ± 1.1
323.15 K, 54964 kPa	705.509 ± 1.1
323.15 K, 58045 kPa	707.475 ± 1.1
323.15 K, 60050 kPa	708.827 ± 1.1
323.15 K, 62131 kPa	710.008 ± 1.1
323.15 K, 64999 kPa	711.842 ± 1.1
323.16 K, 920.7 kPa	659.343 ± 0.82
323.16 K, 27958 kPa	685.975 ± 0.92
323.16 K, 30055 kPa	687.083 ± 0.93
323.16 K, 33067 kPa	689.946 ± 0.94
323.16 K, 40047 kPa	695.097 ± 0.98
323.16 K, 44937 kPa	698.783 ± 1
323.16 K, 66131 kPa	712.551 ± 1.1
328.15 K, 100.8 kPa	653.868 ± 0.81
328.15 K, 289.9 kPa	654.182 ± 0.81
328.15 K, 897.5 kPa	654.815 ± 0.82
328.15 K, 994.1 kPa	655.012 ± 0.82
328.15 K, 1988.8 kPa	656.162 ± 0.82
328.15 K, 2996.7 kPa	657.408 ± 0.82
328.15 K, 5013.4 kPa	659.794 ± 0.83
328.15 K, 6974.9 kPa	662.023 ± 0.83
328.15 K, 9017 kPa	664.204 ± 0.84
328.15 K, 10040 kPa	665.257 ± 0.84
328.15 K, 24924 kPa	679.489 ± 0.91
328.15 K, 27979 kPa	682.036 ± 0.92
328.15 K, 29958 kPa	683.395 ± 0.93
328.15 K, 32060 kPa	685.102 ± 0.94
328.15 K, 33066 kPa	685.969 ± 0.95
328.15 K, 33107 kPa	685.992 ± 0.95
328.15 K, 34013 kPa	687.01 ± 0.95
328.15 K, 35030 kPa	687.796 ± 0.96
328.15 K, 38010 kPa	690.025 ± 0.97
328.15 K, 39969 kPa	691.415 ± 0.98
328.15 K, 41959 kPa	692.865 ± 1
328.15 K, 44953 kPa	695.094 ± 1
328.15 K, 47978 kPa	697.371 ± 1
328.15 K, 49926 kPa	698.804 ± 1
328.15 K, 51997 kPa	700.259 ± 1.1
328.15 K, 54947 kPa	702.284 ± 1.1
328.15 K, 57939 kPa	704.221 ± 1.1
328.15 K, 59991 kPa	705.64 ± 1.1
328.15 K, 61982 kPa	707.057 ± 1.1
328.15 K, 65032 kPa	708.835 ± 1.1
328.15 K, 66046 kPa	709.499 ± 1.1
328.16 K, 501 kPa	654.211 ± 0.82
328.16 K, 12210 kPa	667.562 ± 0.85
328.16 K, 15055 kPa	670.204 ± 0.86
328.16 K, 18061 kPa	673.216 ± 0.88
328.16 K, 20279 kPa	675.247 ± 0.89
328.16 K, 22013 kPa	676.775 ± 0.89
333.15 K, 100.4 kPa	649.302 ± 0.81
333.15 K, 532.6 kPa	649.653 ± 0.82
333.15 K, 897.8 kPa	650.259 ± 0.82
333.15 K, 1987.2 kPa	651.687 ± 0.82
333.15 K, 3023.4 kPa	653.063 ± 0.82
333.15 K, 4997.4 kPa	655.338 ± 0.83
333.15 K, 7002.4 kPa	657.844 ± 0.83
333.15 K, 9032 kPa	660.047 ± 0.84
333.15 K, 10210 kPa	661.268 ± 0.84
333.15 K, 15008 kPa	666.206 ± 0.86
333.15 K, 22034 kPa	672.882 ± 0.89
333.15 K, 28040 kPa	678.188 ± 0.92
333.15 K, 30016 kPa	679.579 ± 0.93
333.15 K, 32067 kPa	681.185 ± 0.94
333.15 K, 32977 kPa	681.946 ± 0.95
333.15 K, 34086 kPa	683.474 ± 0.96
333.15 K, 35075 kPa	684.235 ± 0.96
333.15 K, 37894 kPa	686.324 ± 0.98
333.15 K, 40111 kPa	687.848 ± 0.99
333.15 K, 41947 kPa	689.191 ± 1
333.15 K, 44974 kPa	691.567 ± 1
333.15 K, 47936 kPa	693.899 ± 1
333.15 K, 49920 kPa	695.372 ± 1
333.15 K, 51953 kPa	696.893 ± 1.1
333.15 K, 54876 kPa	699.008 ± 1.1
333.15 K, 58057 kPa	700.988 ± 1.1
333.15 K, 59993 kPa	702.482 ± 1.1
333.15 K, 62049 kPa	703.927 ± 1.1
333.15 K, 64970 kPa	705.65 ± 1.1
333.15 K, 66005 kPa	706.481 ± 1.1
333.16 K, 303.5 kPa	649.622 ± 0.81
333.16 K, 1003 kPa	650.554 ± 0.82
333.16 K, 12011 kPa	663.322 ± 0.85
333.16 K, 17992 kPa	669.217 ± 0.88
333.16 K, 20036 kPa	671.108 ± 0.89
333.16 K, 25027 kPa	675.678 ± 0.91
333.16 K, 33073 kPa	682.004 ± 0.95
338.15 K, 100.4 kPa	644.915 ± 0.81
338.15 K, 309.8 kPa	645.161 ± 0.82
338.15 K, 561.6 kPa	645.341 ± 0.82
338.15 K, 898.5 kPa	645.924 ± 0.82
338.15 K, 1014.1 kPa	646.212 ± 0.82
338.15 K, 2936.1 kPa	648.694 ± 0.82
338.15 K, 5018.6 kPa	651.205 ± 0.83
338.15 K, 10034 kPa	657.126 ± 0.84
338.15 K, 14885 kPa	662.203 ± 0.86
338.15 K, 17956 kPa	665.481 ± 0.88
338.15 K, 19927 kPa	667.369 ± 0.89
338.15 K, 22041 kPa	669.319 ± 0.9
338.15 K, 25026 kPa	672.169 ± 0.91
338.15 K, 29994 kPa	676.134 ± 0.94
338.15 K, 32882 kPa	678.515 ± 0.95
338.15 K, 33937 kPa	679.921 ± 0.96
338.15 K, 35012 kPa	680.879 ± 0.96
338.15 K, 39987 kPa	684.582 ± 0.99
338.15 K, 41990 kPa	686.092 ± 1
338.15 K, 44978 kPa	688.463 ± 1
338.15 K, 47971 kPa	690.744 ± 1
338.15 K, 49999 kPa	692.38 ± 1.1
338.15 K, 52127 kPa	693.976 ± 1.1
338.15 K, 57940 kPa	697.82 ± 1.1
338.15 K, 60014 kPa	699.459 ± 1.1
338.15 K, 65012 kPa	702.688 ± 1.1
338.15 K, 66057 kPa	703.55 ± 1.1
338.16 K, 2000.2 kPa	647.409 ± 0.82
338.16 K, 6917.3 kPa	653.552 ± 0.83
338.16 K, 9046.9 kPa	656.063 ± 0.84
338.16 K, 11959 kPa	659.361 ± 0.85
338.16 K, 27976 kPa	674.704 ± 0.93
338.16 K, 31949 kPa	677.899 ± 0.95
338.16 K, 32882 kPa	678.499 ± 0.95
338.16 K, 37962 kPa	683.24 ± 0.98
338.16 K, 54992 kPa	696.066 ± 1.1
338.16 K, 62074 kPa	700.918 ± 1.1
343.15 K, 105.1 kPa	640.758 ± 0.82
343.15 K, 297.3 kPa	640.918 ± 0.82
343.15 K, 520.3 kPa	641.218 ± 0.82
343.15 K, 911.7 kPa	641.765 ± 0.82
343.15 K, 1017.7 kPa	641.938 ± 0.82
343.15 K, 1994.6 kPa	643.242 ± 0.82
343.15 K, 2968.3 kPa	644.553 ± 0.82
343.15 K, 4994.8 kPa	647.152 ± 0.83
343.15 K, 6976.6 kPa	649.726 ± 0.83
343.15 K, 9002.6 kPa	652.141 ± 0.84
343.15 K, 10060 kPa	653.267 ± 0.85
343.15 K, 12024 kPa	655.625 ± 0.85
343.15 K, 14928 kPa	658.769 ± 0.87
343.15 K, 17975 kPa	661.975 ± 0.88
343.15 K, 19985 kPa	664 ± 0.89
343.15 K, 22033 kPa	666.001 ± 0.9
343.15 K, 25090 kPa	668.93 ± 0.91
343.15 K, 28045 kPa	671.724 ± 0.93
343.15 K, 30082 kPa	673.379 ± 0.94
343.15 K, 32170 kPa	675.296 ± 0.95
343.15 K, 33053 kPa	676.043 ± 0.96
343.15 K, 33097 kPa	676.076 ± 0.96
343.15 K, 35030 kPa	677.808 ± 0.97
343.15 K, 37943 kPa	680.185 ± 0.98
343.15 K, 40012 kPa	681.817 ± 0.99
343.15 K, 41972 kPa	683.353 ± 1
343.15 K, 44927 kPa	685.751 ± 1
